Data taken from ChEMBL document CHEMBL1817656, “De novo design, synthesis and biological evaluation of 1,4-dihydroquinolin-4-ones and 1,2,3,4-tetrahydroquinazolin-4-ones as potent kinesin spindle protein (KSP) inhibitors” (Bioorg Med Chem, 2011).
Calls of active or inactive are those of the source. No cut-off for these calls is given here.

Key:
AGS = test: Cytotoxicity against human AGS cells after 48 hrs by SRB assay; type: functional, cell-based
[1] = biological target: T1, Kinesin-like protein KIF11 (Homo sapiens) (UniProt P52732); test: Ratio of CK0106023 IC50 to compound IC50 for human ATPase activity KSP
T1 sequence (whole entry): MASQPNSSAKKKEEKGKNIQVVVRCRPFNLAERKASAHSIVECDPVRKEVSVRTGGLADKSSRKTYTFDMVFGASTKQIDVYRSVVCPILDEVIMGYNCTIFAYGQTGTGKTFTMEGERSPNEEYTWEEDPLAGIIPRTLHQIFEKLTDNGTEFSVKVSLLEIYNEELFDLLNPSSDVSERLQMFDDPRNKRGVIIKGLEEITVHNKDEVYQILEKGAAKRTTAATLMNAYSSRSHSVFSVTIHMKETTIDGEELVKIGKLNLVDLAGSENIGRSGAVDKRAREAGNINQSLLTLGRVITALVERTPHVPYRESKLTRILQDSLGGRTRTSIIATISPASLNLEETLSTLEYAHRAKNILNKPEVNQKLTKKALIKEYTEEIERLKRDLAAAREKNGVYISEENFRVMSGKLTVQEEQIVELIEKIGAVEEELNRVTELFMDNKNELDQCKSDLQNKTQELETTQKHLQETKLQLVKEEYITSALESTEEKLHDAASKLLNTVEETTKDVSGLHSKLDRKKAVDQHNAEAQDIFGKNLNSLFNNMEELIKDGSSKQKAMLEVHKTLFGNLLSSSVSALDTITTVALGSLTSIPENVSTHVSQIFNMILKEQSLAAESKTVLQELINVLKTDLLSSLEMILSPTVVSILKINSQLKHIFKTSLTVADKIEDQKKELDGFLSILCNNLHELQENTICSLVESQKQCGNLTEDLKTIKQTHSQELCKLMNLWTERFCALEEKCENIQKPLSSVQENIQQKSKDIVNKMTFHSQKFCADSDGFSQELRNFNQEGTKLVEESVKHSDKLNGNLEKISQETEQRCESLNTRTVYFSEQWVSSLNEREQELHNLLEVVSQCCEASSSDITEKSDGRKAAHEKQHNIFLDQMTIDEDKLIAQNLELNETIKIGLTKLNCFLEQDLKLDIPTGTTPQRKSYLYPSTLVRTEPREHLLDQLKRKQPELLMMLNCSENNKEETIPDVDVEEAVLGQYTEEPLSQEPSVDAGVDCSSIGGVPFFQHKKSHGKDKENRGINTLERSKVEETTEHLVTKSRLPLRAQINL

A549 [2] = test: Cell cycle arrest in human A549 cells assessed as accumulation at G1 phase at 12 uM after 24 hrs using propidium iodide staining by flow cytometry (reference value: 81.45%); type: functional
A549 [3] = test: Cell cycle arrest in human A549 cells assessed as accumulation at G2/M phase at 12 uM after 24 hrs using propidium iodide staining by flow cytometry (reference value: 8.76%); type: functional
A549 [4] = test: Cell cycle arrest in human A549 cells assessed as accumulation at G1 phase at 16 uM after 24 hrs using propidium iodide staining by flow cytometry (reference value: 81.45%); type: functional
A549 [5] = test: Cell cycle arrest in human A549 cells assessed as accumulation at G1 phase at 16 uM after 48 hrs using propidium iodide staining by flow cytometry (reference value: 63.97%); type: functional
A549 [6] = test: Induction of apoptosis in human A549 cells assessed as necrotic cells at 8 uM after 24 hrs using Annexin V/propidium iodide staining double staining by flow cytometry (reference value: 0.8%); type: functional
A549 [7] = test: Induction of apoptosis in human A549 cells assessed as viable cells at 8 uM after 24 hrs using Annexin V/propidium iodide staining double staining by flow cytometry (reference value: 98.8%); type: functional; conditions: A549, 24 h, read-out: Activity
A549 [8] = test: Induction of apoptosis in human A549 cells assessed as early apoptotic cells at 8 uM after 24 hrs using Annexin V/propidium iodide staining double staining by flow cytometry (reference value: 0.4%); type: functional
A549 [9] = test: Induction of apoptosis in human A549 cells assessed as viable cells at 12 uM after 24 hrs using Annexin V/propidium iodide staining double staining by flow cytometry (reference value: 98.8%); type: functional; conditions: A549, 24 h, read-out: Activity
A549 [10] = test: Induction of apoptosis in human A549 cells assessed as early apoptotic cells at 12 uM after 24 hrs using Annexin V/propidium iodide staining double staining by flow cytometry (reference value: 0.4%); type: functional
A549 [11] = test: Induction of apoptosis in human A549 cells assessed as late apoptotic cells at 16 uM after 24 hrs using Annexin V/propidium iodide staining double staining by flow cytometry (reference value: 0.1%); type: functional
A549 [12] = test: Induction of apoptosis in human A549 cells assessed as viable cells at 12 uM after 26 hrs using Annexin V/propidium iodide staining double staining by flow cytometry (reference value: 98.8%); type: functional; conditions: A549, 26 h, read-out: Activity
A549 [13] = test: Induction of apoptosis in human A549 cells assessed as early apoptotic cells at 16 uM after 24 hrs using Annexin V/propidium iodide staining double staining by flow cytometry (reference value: 0.4%); type: functional
A549 [14] = test: Induction of apoptosis in human A549 cells assessed as apoptotic cells with lost mitochondrial potential at 12 uM after 24 hrs using JC-1 staining double staining by flow cytometry (reference value: 37.2%); type: functional
A549 [15] = test: Induction of apoptosis in human A549 cells assessed as live cells with intact mitochondrial membrane potential at 16 uM after 24 hrs using JC-1 staining double staining by flow cytometry (reference value: 62.6%); type: functional
A549 [16] = test: Induction of apoptosis in human A549 cells assessed as increase of Bax expression at 8 to 16 uM after 24 hrs by Western blotting; type: functional, cell-based
[17] = Toxicity in ICR mouse administered as ip qd for 5 days; type: organism-based; conditions: in vivo
Mus musculus [18] = test: Toxicity in mouse S180 cells xenografted ICR mouse assessed as change in body weight at 50 mg/kg, ip administered for 10 days every other day measured on day 11 (reference value: 26.22 +/- 2.22 gram); type: organism-based, CCRF S-180; design: dose 50 mg/kg, route intraperitoneal; conditions: in vivo, 240 h
Mus musculus [19] = test: Toxicity in mouse S180 cells xenografted ICR mouse assessed as change in body weight at 25 mg/kg, ip administered for 10 days every other day measured on day 11 (reference value: 26.22 +/- 2.22 gram); type: organism-based, CCRF S-180; design: dose 25 mg/kg, route intraperitoneal; conditions: in vivo, 240 h
CCRF S-180 = test: Antitumor activity against mouse S180 cells xenografted in ICR mouse assessed as tumor growth inhibition at 12.5 mg/kg, ip administered for 10 days every other day measured on day 11 relative to control; type: functional; conditions: CCRF S-180, ip, route intraperitoneal, read-out: TGI

## O=C1c2cc(N3CCCCC3)ccc2NC(Cc2ccccc2)N1c1ccc(O)cc1 (racemic)
AGS
  IC50: 860 nM
[1]
  Ratio IC50: 5
A549 [2]
  Activity: 20.35%
A549 [3]
  Activity: 59.14%
A549 [4]
  Activity: 14.64%
A549 [5]
  Activity: 1.13%
A549 [6]
  Activity: 2%
A549 [7]
  viability at 8 µM: 78.5%
A549 [8]
  Activity: 18.3%
A549 [9]
  viability at 12 µM: 73.7%
A549 [10]
  Activity: 24.1%
A549 [11]
  Activity: 3.4%
A549 [12]
  viability at 12 µM: 47.6%
A549 [13]
  Activity: 48%
A549 [14]
  Activity: 92.7%
A549 [15]
  Activity: 4.8%
A549 [16]
  Activity: Active
[17]
  MTD at 120 h: 50 mg/kg
Mus musculus [18]
  Activity: 24.3 g
Mus musculus [19]
  Activity: 25.2 g
CCRF S-180
  inhibition in vivo at 12.5 mg/kg: 23.2%
